Source: PubChem BioAssay AID248 (DTP/NCI, 2004)
“And” between values parts separate entries of the source, which are not always exact repeats. Identical values can stand only once. Toxic doses and inconclusive results are not listed. Rule as the data show it: active = T/C of 150% or more; inactive = T/C below 125%.

Tested on: L1210 leukemia ip in BDF1 mice, survival T/C
Assay: NCI In Vivo Anticancer Drug Screen. Data for tumor model L1210 Leukemia (intraperitoneal) in B6D2F1 (BDF1) mice
Details: endpoint: mean survival time, higher = longer survival
In short: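 Survival endpoint. Drug-treated group vs vehicle group, expressed as T divided by C. Tumor passaged by transplantation.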

[1] = dose: 100.0 mg/kg/injection, schedule: Q04DX002 (ip), vehicle: Klucel (hydroxypropylcellulose) (HPC)
[2] = dose: 200.0 mg/kg/injection, schedule: Q04DX002 (ip), vehicle: Klucel (hydroxypropylcellulose) (HPC)
[3] = dose: 400.0 mg/kg/injection, schedule: Q04DX002 (ip), vehicle: Klucel (hydroxypropylcellulose) (HPC)
[4] = dose: 100.0 mg/kg/injection, schedule: Q01DX001 (ip), vehicle: saline
[5] = dose: 200.0 mg/kg/injection, schedule: Q01DX001 (ip), vehicle: saline
[6] = dose: 100.0 mg/kg/injection, schedule: Q01DX001 (ip), vehicle: carboxymethylcellulose (CMC)
[7] = dose: 200.0 mg/kg/injection, schedule: Q01DX001 (ip), vehicle: carboxymethylcellulose (CMC)
[8] = dose: 50.0 mg/kg/injection, schedule: Q01DX009 (ip), vehicle: saline
[9] = dose: 100.0 mg/kg/injection, schedule: Q01DX009 (ip), vehicle: saline
[10] = dose: 200.0 mg/kg/injection, schedule: Q01DX009 (ip), vehicle: saline
[11] = dose: 100.0 mg/kg/injection, schedule: Q01DX009 (ip), vehicle: Klucel (hydroxypropylcellulose) (HPC)
[12] = dose: 100.0 mg/kg/injection, schedule: Q04DX003 (ip), vehicle: Klucel (hydroxypropylcellulose) (HPC)
[13] = dose: 200.0 mg/kg/injection, schedule: Q01DX009 (ip), vehicle: Klucel (hydroxypropylcellulose) (HPC)
[14] = dose: 200.0 mg/kg/injection, schedule: Q04DX003 (ip), vehicle: Klucel (hydroxypropylcellulose) (HPC)
[15] = dose: 400.0 mg/kg/injection, schedule: Q04DX003 (ip), vehicle: Klucel (hydroxypropylcellulose) (HPC)
[16] = dose: 100.0 mg/kg/injection, schedule: Q04DX003 (ip), vehicle: saline
[17] = dose: 200.0 mg/kg/injection, schedule: Q04DX003 (ip), vehicle: saline
[18] = dose: 400.0 mg/kg/injection, schedule: Q04DX003 (ip), vehicle: saline
[19] = dose: 100.0 mg/kg/injection, schedule: Q01DX009 (ip), vehicle: saline with Tween-80
[20] = dose: 100.0 mg/kg/injection, schedule: Q04DX003 (ip), vehicle: saline with Tween-80
[21] = dose: 200.0 mg/kg/injection, schedule: Q01DX009 (ip), vehicle: saline with Tween-80
[22] = dose: 200.0 mg/kg/injection, schedule: Q04DX003 (ip), vehicle: saline with Tween-80
[23] = dose: 400.0 mg/kg/injection, schedule: Q01DX009 (ip), vehicle: saline with Tween-80
[24] = dose: 400.0 mg/kg/injection, schedule: Q04DX003 (ip), vehicle: saline with Tween-80
[25] = dose: 400.0 mg/kg/injection, schedule: Q01DX009 (ip), vehicle: Klucel (hydroxypropylcellulose) (HPC)
[26] = dose: 100.0 mg/kg/injection, schedule: Q01DX001 (ip), vehicle: Klucel (hydroxypropylcellulose) (HPC)
[27] = dose: 200.0 mg/kg/injection, schedule: Q01DX001 (ip), vehicle: Klucel (hydroxypropylcellulose) (HPC)
[28] = dose: 400.0 mg/kg/injection, schedule: Q01DX001 (ip), vehicle: Klucel (hydroxypropylcellulose) (HPC)
[29] = dose: 400.0 mg/kg/injection, schedule: Q01DX001 (ip), vehicle: saline

Measured: T/C

CCCCCCCCCC(=O)Nc1ccc(CC)cc1
inactive: [1] 94 % of control | [2] 101 % of control | [3] 111 % of control

Cc1cnc2ccccc2c1
inactive: [4] 100 % of control | [5] 100 % of control

NC(CCC1SCCS1)C(=O)O (stereo not given)
inactive: [6] 104 % of control | [7] 96 % of control | dose: 400.0 mg/kg/injection, schedule: Q01DX001 (ip), vehicle: carboxymethylcellulose (CMC) 98 % of control

C[N+](C)(C)CN1C(=O)c2ccccc2C1=O
inactive: [8] 101 % of control | [9] 97 % of control | [10] 88 % of control

NCC(=O)OC(c1ccccc1)(c1ccccc1)c1ccccc1
inactive: [11] 96 % of control | [12] 98 % of control | [13] 96 % of control | [14] 88 % of control | [15] 89 % of control

Fc1ccc(NC(=S)N/N=C\c2ccc(Cl)cc2Cl)cc1
inactive: dose: 60.0 mg/kg/injection, schedule: Q01DX Z (oral), vehicle: methylcellulose (MC) 103 % of control | dose: 120.0 mg/kg/injection, schedule: Q01DX Z (oral), vehicle: methylcellulose (MC) 89 % of control | dose: 240.0 mg/kg/injection, schedule: Q01DX Z (ip), vehicle: methylcellulose (MC) 89 % of control | dose: 240.0 mg/kg/injection, schedule: Q01DX Z (oral), vehicle: methylcellulose (MC) 93 % of control | dose: 480.0 mg/kg/injection, schedule: Q01DX Z (oral), vehicle: methylcellulose (MC) 95 % of control

COc1ccc(CCN=c2c3ccccc3ccc3ccccc23)cc1OC
inactive: [16] 111 % of control | [17] 97 % of control | [18] 105 % of control

CC1(C)C(=O)Nc2ccccc2N1C(=O)CN1CC2CCC(CC2)C1
inactive: [9] 94 % of control | [16] 93 % of control | [10] 92 % of control | [17] 95 % of control | [18] 98 % of control

CCN(CC)c1cc[c]([Hg][O]C(C)=O)cc1
inactive: dose: 1.56 mg/kg/injection, schedule: Q04DX003 (ip), vehicle: saline with Tween-80 92 % of control | dose: 3.13 mg/kg/injection, schedule: Q04DX003 (ip), vehicle: saline with Tween-80 90 % of control | dose: 6.25 mg/kg/injection, schedule: Q04DX003 (ip), vehicle: saline with Tween-80 93 % of control and 94 % of control | dose: 12.5 mg/kg/injection, schedule: Q04DX003 (ip), vehicle: saline with Tween-80 93 % of control

Cc1cc2nc(C(O)C(O)C(O)C(O)c3nc4cc(C)c(C)cc4[nH]3)[nH]c2cc1C (stereo not given)
inactive: dose: 100.0 mg/kg/injection, schedule: Q01DX001 (ip), vehicle: other 98 % of control | dose: 200.0 mg/kg/injection, schedule: Q01DX001 (ip), vehicle: other 87 % of control | dose: 400.0 mg/kg/injection, schedule: Q01DX001 (ip), vehicle: other 104 % of control

NC(=O)CC(NC(=O)OCc1ccccc1)c1nn[nH]n1 (stereo not given)
inactive: [19] 104 % of control | [20] 91 % of control | [21] 106 % of control | [22] 102 % of control | [23] 98 % of control | [24] 91 % of control

c1ccc(CNc2ccccc2)cc1
inactive: dose: 100.0 mg/kg/injection, schedule: Q01DX009 (sc), vehicle: olive oil, sesame oil, peanut oil 95 % of control | dose: 100.0 mg/kg/injection, schedule: Q04DX003 (sc), vehicle: olive oil, sesame oil, peanut oil 94 % of control | dose: 200.0 mg/kg/injection, schedule: Q01DX009 (sc), vehicle: olive oil, sesame oil, peanut oil 92 % of control | dose: 200.0 mg/kg/injection, schedule: Q04DX003 (sc), vehicle: olive oil, sesame oil, peanut oil 102 % of control | dose: 400.0 mg/kg/injection, schedule: Q01DX009 (sc), vehicle: olive oil, sesame oil, peanut oil 100 % of control | dose: 400.0 mg/kg/injection, schedule: Q04DX003 (sc), vehicle: olive oil, sesame oil, peanut oil 105 % of control

CC12CCC(O)C(C)(C)C1=C(O)C(=O)C1=C2C(=O)CC2(C)C(=O)CCC12C (stereo not given)
inactive: [16] 93 % of control | [17] 93 % of control | [18] 98 % of control

CC1C(=O)CCC2(C)CCC(C)(C)CC12 (stereo not given)
inactive: [19] 98 % of control | [16] 105 % of control | [21] 95 % of control | [17] 97 % of control | [23] 101 % of control | [18] 103 % of control

NNC(=S)NC1CCCCC1
inactive: dose: 25.0 mg/kg/injection, schedule: Q04DX003 (ip), vehicle: Klucel (hydroxypropylcellulose) (HPC) 100 % of control | dose: 50.0 mg/kg/injection, schedule: Q04DX003 (ip), vehicle: Klucel (hydroxypropylcellulose) (HPC) 95 % of control | [12] 95 % of control and 90 % of control | [20] 96 % of control | [22] 96 % of control | [24] 96 % of control

OCCCCCCCCCCCC[n+]1ccccc1
inactive: dose: 87.5 mg/kg/injection, schedule: Q01DX001 (ip), vehicle: saline 105 % of control

CCOC(=O)c1ccc(NC(=O)Oc2ccc(Cl)cc2C)cc1
inactive: [11] 101 % of control | [13] 92 % of control | [25] 95 % of control

CCN(CC)CCOC(=O)c1cccc(N)c1
inactive: [8] 92 % of control | [9] 111 % of control | [10] 103 % of control

O=C(/C=C/c1ccc(Cl)cc1)NCC(O)CO (stereo not given)
inactive: dose: 150.0 mg/kg/injection, schedule: Q04DX003 (ip), vehicle: water 100 % of control | dose: 300.0 mg/kg/injection, schedule: Q04DX003 (ip), vehicle: water 105 % of control | dose: 600.0 mg/kg/injection, schedule: Q04DX003 (ip), vehicle: water 102 % of control

COC(=O)c1c(C(=O)OC)c2c(-c3ccccc3)cc3cccc1n32
inactive: [12] 94 % of control | [14] 102 % of control | [15] 94 % of control

O=CNc1ccc2c3c(cccc13)CC2
inactive: [26] 101 % of control | [27] 93 % of control | [28] 108 % of control

CC(=O)c1ccc(OC(=O)C(C)(C)C)cc1
inactive: [4] 97 % of control | [5] 103 % of control | [29] 98 % of control

N#CC(Sc1ccccc1)c1ccccc1 (stereo not given)
inactive: [1] 119 % of control | [2] 97 % of control | [3] 86 % of control

O=C(Nc1ccc([N+](=O)[O-])cn1)Nc1cc([N+](=O)[O-])ccc1F
inactive: [26] 93 % of control | [11] 94 % of control and 89 % of control | [1] 95 % of control and 102 % of control | [27] 100 % of control | [13] 94 % of control and 89 % of control | [2] 92 % of control and 102 % of control | [14] 87 % of control | [28] 94 % of control | [25] 100 % of control | [3] 94 % of control and 95 % of control | [15] 92 % of control

OC1CCC2C3CC=CC3C12 (stereo not given)
inactive: dose: 75.0 mg/kg/injection, schedule: Q01DX001 (ip), vehicle: other 93 % of control | dose: 150.0 mg/kg/injection, schedule: Q01DX001 (ip), vehicle: other 98 % of control | dose: 300.0 mg/kg/injection, schedule: Q01DX001 (ip), vehicle: other 106 % of control

CC(C)(O)c1ccccc1
inactive: [4] 105 % of control | [19] 88 % of control | [20] 93 % of control | [5] 100 % of control | [21] 90 % of control | [22] 89 % of control | [29] 103 % of control | [23] 92 % of control | [24] 91 % of control

CC/C(=N/Nc1ccc([N+](=O)[O-])cc1[N+](=O)[O-])c1cccs1
inactive: [6] 100 % of control | [7] 97 % of control

CC(=O)Nc1ccc(NC(=O)NCCCCCCNC(=O)Nc2ccc(NC(C)=O)cc2)cc1
inactive: [11] 102 % of control | [13] 98 % of control | [25] 100 % of control

O=[N+]([O-])c1cnccc1Nc1ccncc1
inactive: [20] 98 % of control | [22] 94 % of control
